Source: the supplement of paper PMC10307832

Key:
Experiment in all cases: relative viability (nuclei count vs DMSO), 5 days (fraction); higher = more cells survive
Vismodegib + Bortezomib = compound: CS(=O)(=O)c1ccc(C(=O)Nc2ccc(Cl)c(-c3ccccn3)c2)c(Cl)c1 [Vismodegib] + CC(C)C[C@H](NC(=O)[C@H](Cc1ccccc1)NC(=O)c1cnccn1)B(O)O [Bortezomib] (partner 0.002 µM)
In short: (§1)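 Dosing by pin tool came one day after lung cancer cell lines were seeded in 1536-well plates, using either one drug or a fixed anchor-drug dose plus five library-drug doses (not always all listed) in √10 steps. After 5 days, nuclei were counted on 4× images. Relative viability is treated-well nuclei count divided by vehicle-well nuclei count, and values are medians of duplicate plates.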

VE-821 + Lapatinib = compound: CS(=O)(=O)c1ccc(-c2cnc(N)c(C(=O)Nc3ccccc3)n2)cc1 [VE-821] + CS(=O)(=O)CCNCc1ccc(-c2ccc3ncnc(Nc4ccc(OCc5cccc(F)c5)c(Cl)c4)c3c2)o1 [Lapatinib] (partner 2 µM)
In short: as §1

VE-821 + Navitoclax = compound: CS(=O)(=O)c1ccc(-c2cnc(N)c(C(=O)Nc3ccccc3)n2)cc1 [VE-821] + CC1(C)CCC(c2ccc(Cl)cc2)=C(CN2CCN(c3ccc(C(=O)NS(=O)(=O)c4ccc(N[C@H](CCN5CCOCC5)CSc5ccccc5)c(S(=O)(=O)C(F)(F)F)c4)cc3)CC2)C1 [Navitoclax] (partner 0.5 µM)
In short: as §1

Vismodegib + Linsitinib = compound: CS(=O)(=O)c1ccc(C(=O)Nc2ccc(Cl)c(-c3ccccn3)c2)c(Cl)c1 [Vismodegib] + C[C@]1(O)C[C@@H](c2nc(-c3ccc4ccc(-c5ccccc5)nc4c3)c3c(N)nccn32)C1 [Linsitinib] (partner 1 µM)
In short: as §1

| Cell Line | relative viability (Vismodegib + Bortezomib; first compound 0.08 µM) | relative viability (Vismodegib + Bortezomib; first compound 0.253 µM) | relative viability (Vismodegib + Bortezomib; first compound 0.8 µM) | relative viability (Vismodegib + Bortezomib; first compound 2.53 µM) | relative viability (Vismodegib + Bortezomib; first compound 8 µM) | relative viability (VE-821 + Lapatinib; first compound 0.08 µM) | relative viability (VE-821 + Lapatinib; first compound 0.253 µM) | relative viability (VE-821 + Lapatinib; first compound 0.8 µM) | relative viability (VE-821 + Lapatinib; first compound 2.53 µM) | relative viability (VE-821 + Lapatinib; first compound 8 µM) | relative viability (VE-821 + Navitoclax; first compound 0.08 µM) | relative viability (VE-821 + Navitoclax; first compound 0.253 µM) | relative viability (VE-821 + Navitoclax; first compound 0.8 µM) | relative viability (VE-821 + Navitoclax; first compound 2.53 µM) | relative viability (VE-821 + Navitoclax; first compound 8 µM) | relative viability (Vismodegib + Linsitinib; first compound 0.08 µM) | relative viability (Vismodegib + Linsitinib; first compound 0.253 µM) | relative viability (Vismodegib + Linsitinib; first compound 0.8 µM) | relative viability (Vismodegib + Linsitinib; first compound 2.53 µM) | relative viability (Vismodegib + Linsitinib; first compound 8 µM) |
| --- | --- | --- | --- | --- | --- | --- | --- | --- | --- | --- | --- | --- | --- | --- | --- | --- | --- | --- | --- | --- |
| NCI-H2023 | 0.906 | 0.889 | 0.915 | 1.02 | 0.943 | 0.918 | 0.878 | 0.713 | 0.477 | 0.202 | 1.01 | 1.02 | 0.808 | 0.686 | 0.296 | 0.596 | 0.662 | 0.675 | 0.579 | 0.618 |
| Calu-6 | 0.969 | 1.03 | 1.02 | 1.05 | 0.987 | 1.21 | 1.05 | 1.1 | 0.89 | 0.551 | 0.845 | 0.828 | 0.791 | 0.648 | 0.35 | 1 | 0.9 | 0.952 | 0.904 | 1.02 |
| EKVX | 1.1 | 1.09 | 1.1 | 1.06 | 1.03 | 0.209 | 0.196 | 0.219 | 0.242 | 0.186 | 1.17 | 0.975 | 0.632 | 1.01 | 0.907 | 0.949 | 1.04 | 0.929 | 0.894 | 0.989 |
| LCLC-97TM1 | 0.741 | 0.652 | 0.804 | 0.694 | 0.671 | 0.75 | 0.716 | 0.669 | 0.848 | 0.393 | 0.58 | 0.546 | 0.418 | 0.494 | 0.43 | – | – | 0.174 | – | 0.211 |
| NCI-H2085 | 1.08 | 0.985 | 1.06 | 1.1 | 1.02 | 0.8 | 0.758 | 0.507 | 0.815 | 0.563 | 1.12 | 1.12 | 1.24 | 1.24 | 1.03 | 0.843 | 0.874 | 0.957 | 0.86 | 0.52 |
| BEN | 0.574 | 0.787 | 0.819 | 0.846 | 0.885 | 0.845 | 0.775 | 0.657 | 0.8 | 0.662 | 0.0647 | 0.0527 | 0.059 | 0.0551 | 0.0693 | 0.951 | 0.939 | 0.929 | 0.964 | 0.99 |
| NCI-H1703 | 0.368 | 0.257 | 0.372 | 0.342 | 0.401 | 1.21 | 1 | 1.06 | 0.547 | 0.328 | 1.25 | 0.923 | 1.17 | 0.394 | 0.246 | 0.928 | 0.77 | 0.928 | 0.618 | 1.19 |
